Tests used:
[1] = test system: U87MG_IDH1R132H; assay: Cellular 2-HG production assay, U87-MG-IDH1 R132H; type: cell-based; settings: inhibition of 2HG production, 72 hr incubation, LC-MS/MS
Summary of the method: (§1)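 Cells in E-MEM/10% FCS (G418 500 μg/mL for the transfected U87-MG line) at 500 per well got compound 24 h after seeding and were incubated 72 h at 37 °C. Medium 2-HG was measured by LC-MS/MS with 2-HG-d3 internal standard; IC50 came from sigmoidal fitting versus controls.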

[2] = test system: HT-1080 (IDH1^R132C); assay: Cellular 2-HG production assay, HT-1080; type: cell-based; settings: Homo sapiens, HT-1080, 72 h, inhibition of 2HG production, 72 hr incubation, LC-MS/MS; read-out: HT1080 2-HG IC50
Summary of the method: as §1

[3] = molecular target: T1, IDH1WT enzyme (Homo sapiens, UniProt O75874); assay: Enzymatic assay for IDH1 wild-type (NADPH forming assay); type: biochemical
T1 construct: purchased not specified
T1 sequence (O75874 whole entry): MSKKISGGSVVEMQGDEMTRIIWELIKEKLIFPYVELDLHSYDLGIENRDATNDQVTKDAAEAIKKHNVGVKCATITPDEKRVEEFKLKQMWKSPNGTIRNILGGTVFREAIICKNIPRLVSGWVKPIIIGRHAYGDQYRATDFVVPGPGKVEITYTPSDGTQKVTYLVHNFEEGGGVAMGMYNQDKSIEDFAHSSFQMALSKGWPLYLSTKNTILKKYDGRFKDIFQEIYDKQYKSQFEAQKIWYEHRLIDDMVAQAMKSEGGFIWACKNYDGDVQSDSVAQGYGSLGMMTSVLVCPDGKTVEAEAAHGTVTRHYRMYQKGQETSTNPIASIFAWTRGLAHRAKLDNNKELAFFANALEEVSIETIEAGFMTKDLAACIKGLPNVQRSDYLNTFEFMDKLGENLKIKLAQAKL
Description: IDH1WT enzymatic activity converting isocitric acid to alpha-ketoglutarate is measured using a NADPH forming assay. In the assay the forming cofactor is measured in continuous with the addition of a catalytic excess of diaphorase and resazurin, to generate a fluorescent signal in proportion to the amount of NADPH forming.
Compounds were preincubated with the enzyme, then the reaction was started by the addition of NADP^+, isocitrate, diaphorase and a corresponding substrate, resazurin. Diaphorase reduces resazurin to the highly fluorescent resorufin with the concomitant oxidation of NADPH to NADP. Specifically, 0.2 uL of test compound, previously serially diluted 1 to 3, 10 experimental points from 1 mM in DMSO, was added to 0.016 nM IDH1WT enzyme in 10 μL of Assay Buffer (150 mM NaCl, 50 mM Tris-HCl pH 7.6, 10 mM MgCl2, 0.001% Triton X-100, 4 mM β-mercaptoethanol); the mixture is incubated for 15 minutes at room temperature. The reaction is started with the addition of 10 μL of Substrate Mix (400 μM NADP^+, 40 μM iso-citrate, 5 ugr/mL Diaphorase and 7 μM resazurin in Assay Buffer), the mixture is incubated at room temperature and the reaction is reading on a ViewLux as platereader at Ex544/Em590 in continuous.

[4] = molecular target: T2, IDH1^R132C (Homo sapiens, UniProt O75874, R132C); assay: NADPH depletion assay, IDH1 R132C; type: biochemical
T2 construct: purchased not specified
T2 sequence (O75874 whole entry R132C): as the sequence (O75874 whole entry) above, with R132C counted along it
Summary of the method: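 Fluorescence readout (Ex544/Em590) of NADPH left after diaphorase/resazurin addition. Alpha-ketoglutarate 0.14 mM final, enzyme 2 nM final; compound preincubation 15 min, then 60 min reaction, both at room temperature, pH 7.6 Tris buffer.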

[5] = molecular target: T3, IDH2^R172K (Homo sapiens, UniProt P48735, R172K); assay: NADPH depletion assay, IDH2 R172K; type: biochemical
T3 construct: purchased not specified
T3 sequence (P48735 40-452 R172K): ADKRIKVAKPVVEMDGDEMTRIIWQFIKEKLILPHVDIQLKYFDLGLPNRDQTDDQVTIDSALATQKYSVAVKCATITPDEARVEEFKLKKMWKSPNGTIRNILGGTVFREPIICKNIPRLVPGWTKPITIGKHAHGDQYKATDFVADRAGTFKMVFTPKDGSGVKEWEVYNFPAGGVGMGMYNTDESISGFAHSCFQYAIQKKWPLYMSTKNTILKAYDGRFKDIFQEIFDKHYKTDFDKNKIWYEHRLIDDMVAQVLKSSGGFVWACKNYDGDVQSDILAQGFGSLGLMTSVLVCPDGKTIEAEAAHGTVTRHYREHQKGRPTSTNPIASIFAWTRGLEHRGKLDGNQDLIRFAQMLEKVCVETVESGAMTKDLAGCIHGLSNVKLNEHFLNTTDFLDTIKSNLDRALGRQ
Summary of the method: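 This NADPH depletion assay measures NADPH left after conversion of alpha-ketoglutarate (0.55 mM final) by 16 nM IDH2 R172K over 60 min at room temperature, after a 15 min compound preincubation in pH 7.6 Tris buffer. Substrate mix held 12 μM NADPH. Diaphorase/resazurin gave the fluorescence read-out at 544/590 nm.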

[6] = molecular target: T4, IDH1^R132H homodimer enzyme (Homo sapiens, UniProt O75874, R132H); assay: NADPH depletion assay, IDH1 R132H; type: biochemical
T4 construct: purchased not specified
T4 sequence (O75874 whole entry R132H): as the sequence (O75874 whole entry) above, with R132H counted along it
Summary of the method: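 IDH1 R132H enzyme (8 nM as diluted) in Tris-HCl pH 7.6 with 10 mM MgCl2, 0.001% Triton X-100 and 4 mM β-mercaptoethanol is preincubated 15 min at RT with compound. Substrate mix (12 uM NADPH, 3.4 mM α-ketoglutarate) is added for 60 min; remaining NAD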

SMILES: C=CC(=O)N1CCN(Cc2ccc([C@H](C)Nc3ncc4ccc(=O)n(CC(C)(C)CO)c4n3)cc2)CC1 [cpd 140, 2-{(S)-1-[4-(4-Acryloyl-piperazin-1-ylmethyl)-phenyl]-ethylamino}-8-(3-hydroxy-2,2-dimethyl-propyl)-8H-pyrido [2,3-d]pyrimidin-7-one]
- IC50 [1]: 10 nM
- IC50 [2]: 108 nM
- IC50 [3]: 4850 nM
- IC50 [4]: 115 nM
- IC50 [5]: 3230 nM
- IC50 [6]: 249 nM

SMILES: C=CC(=O)N1CCN([C@H](CC)c2ccc([C@H](C)Nc3ncc4ccc(=O)n(C(C)C)c4n3)cc2)CC1 [cpd 228, 2-{[(1S)-1-{4-[(1R)-1-(4-acryloylpiperazin-1-yl)propyl]phenyl}ethyl]amino}-8-(propan-2-yl)pyrido[2,3-d]pyrimidin-7(8H)-one]
- IC50 [1]: 0.6 nM
- IC50 [2]: 0.8 nM
- IC50 [3]: 27.3 nM
- IC50 [4]: 2 nM
- IC50 [5]: 25 nM
- IC50 [6]: 2 nM

SMILES: CC(C)[C@H](C)n1c(=O)ccc2cnc(N[C@@H](C)c3ccc(CN4CCC(F)(F)CC4)c(F)c3)nc21 [cpd 67, 2-{[(1S)-1-{4-[(4,4-difluoropiperidin-1-yl)methyl]-3-fluorophenyl}ethyl]amino}-8-[(2S)-3-methylbutan-2-yl]pyrido[2,3-d]pyrimidin-7(8H)-one]
- IC50 [1]: 200 nM
- IC50 [2]: 67 nM
- IC50 [3]: 1710 nM
- IC50 [4]: 15 nM
- IC50 [5]: 7360 nM
- IC50 [6]: 37 nM

SMILES: C=CC(=O)N1CCN([C@@H](CC)c2ccc([C@H](C)Nc3ncc4ccc(=O)n(C(C)C)c4n3)cc2)CC1 [cpd 227, 2-{[(1S)-1-{4-[(1S)-1-(4-acryloylpiperazin-1-yl)propyl]phenyl}ethyl]amino}-8-(propan-2-yl)pyrido[2,3-d]pyrimidin-7(8H)-one]
- IC50 [1]: 0.4 nM
- IC50 [2]: 1.4 nM
- IC50 [3]: 109 nM
- IC50 [4]: 5 nM
- IC50 [5]: 49 nM
- IC50 [6]: 7 nM

SMILES: C=CC(=O)N1CCN(C(CC2CC2)c2ccc([C@H](C)Nc3ncc4ccc(=O)n(C(C)C)c4n3)cc2)CC1 (stereo partly drawn) [cpd 220, 2-{[(1S)-1-{4-[1-(4-acryloylpiperazin-1-yl)-2-cyclopropylethyl]phenyl}ethyl]amino}-8-(propan-2-yl)pyrido[2,3-d]pyrimidin-7(8H)-one]
- IC50 [1]: 0.5 nM
- IC50 [2]: 0.3 nM
- IC50 [3]: 53 nM
- IC50 [4]: 1 nM
- IC50 [5]: 15 nM
- IC50 [6]: 1 nM

SMILES: C[C@H](Nc1ncc2ccc(=O)n(CC(C)(C)C)c2n1)c1ccc(CN2CCC(F)(F)CC2)c(F)c1 [cpd 94, 2-{[(1S)-1-{4-[(4,4-difluoropiperidin-1-yl)methyl]-3-fluorophenyl}ethyl]amino}-8-(2,2-dimethylpropyl) pyrido[2,3-d]pyrimidin-7(8H)-one]
- IC50 [1]: 370 nM
- IC50 [2]: 203 nM
- IC50 [3]: 1330 nM
- IC50 [4]: 30 nM
- IC50 [5]: 5570 nM
- IC50 [6]: 71 nM

SMILES: C[C@H](Nc1ncc2ccc(=O)n(CC(C)(C)C)c2n1)c1ccc(CN2CCC(F)(F)CC2)cc1 [cpd 105, 2-{[(1S)-1-{4-[(4,4-difluoropiperidin-1-yl)methyl]phenyl)ethyl]amino)-8-(2,2-dimethylpropyl)pyrido[2,3-d]pyrimidin-7(8H)-one]
- IC50 [1]: 417 nM
- IC50 [2]: 116 nM
- IC50 [3]: 2040 nM
- IC50 [4]: 55 nM
- IC50 [5]: 4730 nM
- IC50 [6]: 105 nM
